# From patent US20240228481A1, “NOVEL SULFONAMIDE SERIES OF QR2 INHIBITORS TO TACKLE OXIDATIVE STRESS AND COGNITIVE DECLINE” (CARMEL HAIFA UNIVERSITY ECONOMIC CORPORATION LTD., priority 2021, published 2024)
# Counter-ions that a name gives are not always drawn.
# Legend:
# [1] = Cell toxicity assay (ATP depletion, CellTiter Glo); settings: human
# Protocol: THLE-2 (CRL-2706™) were grown in the BEGM Bullet Kit (CC-3170) from Lonza. Besides the additives contained in the kit, the medium was further supplemented with 5 ng/mL EGF (Sigma), 70 ng/mL phosphoethanolamine (Sigma) and 10% FBS (Biological Industries). The plates for the THLE-2 needed to be pre-coated with a mixture of 0.01 mg/mL fibronectin, 0.05 mg/mL of PureCol™ EZ Gel Solution (Sigma) and 0.01 mg/mL of BSA dissolved in BEBM medium (Lonza). The coating medium was aspirated before seeding.
# THLE-2 cells were exposed to the compounds in a 9-point, 2-fold dilution dose response series with a 100 μM as upper limit, for 72 h. Following the 72 h of exposure to the test compounds, cell viability was determined by measuring the concentration of cellular ATP (CellTiter Glo, Promega). The luminescence signal was measured on a Pherastar FS multi-mode plate reader (BMG Labtech). Each data point was tested in a triplicate.
# First, toxicity was assessed in an ATP depletion assay, using THLE-2 cells following a 72 h exposure to a dose response of each of the tested compounds.
# C57BL/6 mice = assay: Delay fear conditioning after microinjection to CA1; assay type: in vivo, mouse; settings: 5 μM to CA1
# Description: Mice were anesthetized under 2% isoflurane, using an induction box (HME109, Highland Medical Equipment). They were placed in a stereotaxic device (Kopf Stereotaxic Alignment System, model 1900) under continuous 1% isoflurane anesthesia. Guide cannulas were implanted bilaterally to CA1 (from bregma: −1.9 mm AP, ±1.4 mm ML, −1.6 mm DV), cemented to the skull and fitted with 28-gauge dummy cannulas extending 0.2 mm beyond the tip of the 1.2 mm guide cannulas. The mice were allowed at least 7 days of recovery before experimentation. The QR2 inhibitor YB-808 was dissolved in DMSO and further diluted in saline to a final DMSO concentration of 0.1%. YB-537 was dissolved in saline (0.9%). A total of 1 μl of 5 μM of either compound or vehicle was infused bilaterally to CA1, via a 28-gauge infusion cannula projecting 0.4 mm (drug delivery depth bregma: −1.6 mm DV) beyond the guide cannula, connected by polyethylene tubing to a 10 μl syringe (Hamilton) over the course of 1 min. The injection cannula was kept for 60 s inside the guide cannula in order prevent osmotic seepage of the doses upward through the cannula tract. Twenty minutes following the injection, animals underwent delay fear conditioning. Following experimentation, animals were sacrificed, brains were excised and sectioned in coronal sections, and cannula implantation was validated by imaging. […]
# [2] = Pharmacokinetic study, p.o. and i.v.; assay type: in vivo, mouse
# 5×FAD mice = assay: Immunohistochemistry of CA1 in 5×FAD mice (4-HNE, amyloid β, p-Tau, Iba1); assay type: in vivo, mouse; settings: 1 month drinking
# Protocol: A week after the completion of all behavioral experiments, 5×FAD mice were anesthetized with isoflurane, and once fully anesthetized, were transcardially perfused with 4% paraformaldehyde (PFA), dilutes in […] phosphate buffered saline (PBS, Sigma-Aldrich). Brains were then briefly removed and placed in chilled, 4% PFA for 48 h, followed by immersion in 30% sucrose in 0.1 M PBS for a further 48 h. Brains were then stored at −80° C., until they were sliced into 40 μm coronal sections using a Leica CM 1950 cryostat. Slices were then washed ×3 in PBS and blocked for 1 h at RT using 10% normal donkey serum (DNS) and 0.2% triton (Sigma-Aldrich) in PBS. Antibodies, including 4-HNE (1:500, AbCam, ab48506), Iba1 (1:2,000, AbCam, ab5076), phospho-tau (1:1,000, Thermo, MN1020) and amyloid R (1:1,000, AbCam, ab201060) diluted in PBS with 10% DNS were incubated at 4° C. overnight. The next day, the slices were washed ×3 times in PBS, and secondary antibodies including donkey anti goat Alexa Fluor 568 (AbCam, ab175704), donkey anti-mouse Cy 5 (Jackson Immuno Research, 715-175-151) and donkey anti-rabbit DyLight 488 (AbCam, ab98488) all diluted 1:500 in PBS with 1% BSA, were applied to the slices at RT for 2 h. Following the incubation, the slices were washed ×3 times in PBS, mounted onto glass slides, were uniformly covered in DAPI containing Vectashield (H-1200) and coverslips were added. Images were then taken using a confocal microscope (Olympus IX83), with identical acquisition parameters across every sample per antibody. Three slices were used per mouse per antibody, with images taken of dorsal CA1 (Bregma: −1.58 mm to −2.30 mm; with each antibody having a slice from anterior, medial and posterior regions of this range) using a ×20 objective, acquiring two 800×800 pixel images over as many Z levels possible per slice (Z-stack of the whole section). Analysis of the images was done blind, using Imaris (Bitplane) software. Surface reconstruction module was used to extract the data as volumes and signal intensities. Marker volume or intensity were normalized to the corresponding brain volume. This was done in order to normalize the marker volumes to variations in Z-stack volumes and/or changes to shape and size that needed to be performed during analysis due to debris, vasculature, corpus callosum elimination, or any other obstructions or changes in shape. The normalized value was averaged for each triplicate.
# Following the completion of behavioral experiments, the inventors wished to assess brain pathologies associated with AD present in the 5×FAD mice used. Therefore, 5 days following the completion of the last behavioral experiment, and 1 month following the start of YB-537 consumption, all the mice were sacrificed and coronal sections of their fixed brains were made and used for immunohistochemistry. Since the CA1 region of the hippocampus is affected early on in the pathogenesis of AD, and this brain region is involved in the behavioral paradigms used here, the inventors acquired images of CA1. This was done with an Olympus IX83 confocal microscope using the same settings, antibodies and exposures (all slices and samples were prepared by the same experimenter and all images taken by the same experimenter) in all mice and a separate blind experimenter, unaware of the experimental conditions or details, measured and analyzed the signal detected using Imaris (Bitplane) software (see methods). For each mouse, three coronal sections were used per antibody. In each section, the same region of CA1 was acquired, using the same image frame size and resolution, at all possible depths of the section (Z-stack of the whole section), to allow measurement of the fluorescent antibody marker volume, which was normalized to the brain volume from which it was taken. First, the inventors measured oxidative stress, as indicated by lipid peroxidation product, 4-Hydroxynonenal (4-HNE, antibody: AbCam, ab48506). […]
SMILES,IC50 at 72 h [1] [µM],baseline freezing (C57BL/6 mice) [%],"half-life ([2]; C57BL/6J, mouse, in vivo, po, p.o. 50 mg/kg, male mice, read-out: clearance rate half-life) [h]","brain clearance half-life ([2]; acute oral dosing, mouse brain) [h]","peak concentration in brain ([2]; male, C57BL/6J, mouse, in vivo, po) [ng/g]","bioavailability ([2]; p.o. 50 mg/kg, male mice) [%]","brain clearance half-life ([2]; p.o., male mouse brain) [h]","time of peak in brain following p.o. administration ([2]; p.o., male mouse brain) [h]","4-HNE volume normalized to μm^3 of brain, CA1 (5×FAD mice; 5×FAD females)","4-HNE volume normalized to μm^3 of brain, CA1 (5×FAD mice; 5×FAD males)","Amyloid β volume normalized to μm^3 of brain, CA1 (5×FAD mice; 5×FAD males)","Volume of Iba1 normalized to μm^3 of brain, CA1 (5×FAD mice; 5×FAD males)","Volume of p-Tau normalized to μm^3 of brain, CA1 (5×FAD mice; 5×FAD males)","sum of the intensity of Iba1 positive signal normalized to μm^3 of brain, CA1 (5×FAD mice; 5×FAD males)","Volume of Iba1 normalized to μm^3 of brain, CA1 (5×FAD mice; 5×FAD total population)","sum of the intensity of Iba1 positive signal normalized to μm^3 of brain, CA1 (5×FAD mice; 5×FAD total population)"
Cc1cccn2cc(-c3cccc(S(=O)(=O)N4CCC(C)CC4)c3)nc12 [YB-800],78.4,–,–,–,–,–,–,–,–,–,–,–,–,–,–,–
"Cc1ccc(-c2cn3cccc(C)c3n2)cc1S(=O)(=O)N1CCNCC1 [YB-537, 8-methyl-2-(4-methyl-3-(piperazin-1-ylsulfonyl)phenyl)imidazo[1,2-a]pyridine hydrochloride]",–,3.595±1.244,1,~1,203,82,1.06,~1,0.053±0.005,0.053±0.005,0.038±0.004,0.038±0.003,0.064±0.006,74.09±6.198,0.032±0.002,63.57±5.251
